From patent US12171743B2, “Forms of aticaprant” (Janssen Pharmaceuticals, Inc., priority 2022, dated 2024)
“Also recorded” adds a separate entry of the source.

What was measured:
Type in all cases: physicochemical
[1] = Competitive slurries of Forms I, II and III (thermodynamic stability)
Method: Competitive slurrying experiments were carried out with Form I, Form II and Form III to determine the relative order of stability. Slurrying experiments were carried out in six different solvent systems 5 and 50° C.
Saturated solutions of Form III were prepared in different solvent systems. See, Table 32. Each vial was filled with the relevant solvent (1.5 mL in each) and placed to equilibrate at the relevant temperature. After this time, small spatulas of the solid were added until the solid no longer dissolved. Samples were left to stir at 5° C. and 50° C. for ca. 2 weeks or longer as noted.
Form III (180 mg) and Form II (180 mg) were combined into a 4 mL vial. The sample was placed on a turbula blender for 30 mins, after which a small sample was taken and analyzed by XRPD to confirm a mixture. 10 mg of this mixture was weighed and a mixture of Form I and Form II was instead used as seeds in the competitive slurries. To each vial was added the mixture of Forms I and II (7 mg). See, Table 33.

[2] = Gravimetric vapor sorption (GVS)
Method: Sorption isotherms were obtained using a SMS DVS Intrinsic moisture sorption analyzer, controlled by DVS Intrinsic Control software. The sample temperature was maintained at 25° C. by the instrument controls. The humidity was controlled by mixing streams of dry and wet nitrogen, with a total flow rate of 200 mL/min. The relative humidity was measured by a calibrated Rotronic probe (dynamic range of 1.0-100% RH), located near the sample. The weight change, (mass relaxation) of the sample as a function of % RH was constantly monitored by a microbalance (accuracy ±0.005 mg).
Typically, 5-30 mg of sample was placed in a tared mesh stainless steel basket under ambient conditions. The sample was loaded and unloaded at 40% RH and 25° C. (typical room conditions). A moisture sorption isotherm was performed as outlined below (2 scans per complete cycle). The standard isotherm was performed at 25° C. at 10% RH intervals over a 0-90% RH range. Typically, a double cycle (4 scans) was carried out. Data analysis was carried out within Microsoft Excel using the DVS Analysis Suite. See, Table 15.
The sample was recovered after completion of the isotherm and re-analyzed by XRPD.

[3] = Solubility observation of Form III in solvents
Method: Form III of aticaprant (20 mg) was weighed into 3 HPLC vials. Each vial was treated with 10 vol (250 μL) of the relevant solvent at 25° C. and shaken. The sample in t-BuOH was placed at 90° C. for a few seconds, where a solution was obtained. The solutions were filtered using a 0.45 μm PTFE membrane Acrodisc filter, before being flash frozen in an acetone/dry ice bath for 5 minutes. The samples were then freeze-dried overnight. The resulting solids were characterized by XRPD.
[…] Form III of aticaprant (20 mg) was dispensed into amber HPLC vials (×49) with a magnetic stirrer bar. Each vial was treated with the relevant solvent (5 vol) at RT and stirred at 300 rpm for 10 mins. If suspensions were still observed, increasing volumes of the solvent were added until the material fully dissolved or until a maximum of 80 vol had been used (Table 20). All samples were heated to 50° C. and held for 1 hour. The samples were then cooled to 5° C. at a rate of 0.1° C./min and left to stir overnight. Any suspensions remaining at this point were subjected to maturation at RT/50° C. for 2 weeks.

[4] = Static storage at elevated temperature and humidity, form by XRPD; details: for form after static storage: (10 days), Form II prepared at 1 g scale; for form (XRPD) after static storage: 1 week
Method: After static storage of amorphous aticaprant at 40° C./75% RH for 1 week, Form II was obtained.
Fresh amorphous aticaprant was prepared for static storage at 40° C./75% RH for 1 week. Both solvents produced amorphous aticaprant. Tg was determined to be 45.5° C. by mDSC. See, Table 19 for the characterization of amorphous aticaprant.
Form I was obtained in the screens from ethyl acetate and MEK (both through solvent evaporation). It also was obtained from addition of heptane antisolvent to solutions in ethyl acetate and diethyl ether. The sample from the solubility assessment in ethyl acetate was isolated and characterized by XRPD, ^1H NMR, and DSC (FIG. 7), and static storage at elevated temperature and humidity.

SMILES: Cc1cc(C)cc(C2CCCN2Cc2ccc(Oc3ccc(C(N)=O)cc3F)cc2)c1 (centres unmarked) [Form III]
- relative stability among Forms I, II and III (in words) [1]: most stable form
- GVS hysteresis [2]: No hysteresis observed
- XRPD / form after GVS [2]: XRPD unchanged after GVS
- GVS max uptake ([2]; at 90% RH, 25° C.): 0.4% max uptake at 90% RH
- solubility observation ([3]; 70% THF/H2O, 250 μL/10 vol, RT): Soluble, biphasic
- solubility observation ([3]; t-BuOH at 90° C.): (soluble at 90° C.)
- solubility observation ([3]; t-BuOH, 250 μL/10 vol, 25° C.): Insoluble

SMILES: Cc1cc(C)cc(C2CCCN2Cc2ccc(Oc3ccc(C(N)=O)cc3F)cc2)c1 (centres unmarked) [Form II]
- stability after static storage at elevated temperature and humidity (in words) [4]: remained stable
- form after static storage ([4]; 25° C./97% RH): Form II
- form after static storage ([4]; 40° C./75% RH): Form II
- GVS hysteresis [2]: slight hysteresis
- XRPD / form after GVS [2]: XRPD post-GVS: Form II
- hygroscopicity (in words) [2]: slightly hygroscopic; also recorded: Sample exhibits low hygroscopicity

SMILES: Cc1cc(C)cc(C2CCCN2Cc2ccc(Oc3ccc(C(N)=O)cc3F)cc2)c1 (centres unmarked) [Form I]
- stability after static storage at elevated temperature and humidity (in words) [4]: remains stable
- form (XRPD) after static storage ([4]; 40° C./75% RH): Form I

SMILES: Cc1cc(C)cc(C2CCCN2Cc2ccc(Oc3ccc(C(N)=O)cc3F)cc2)c1 (centres unmarked) [amorphous aticaprant]
- form (XRPD) after static storage ([4]; 40° C./75% RH): Form II
- form (XRPD) after static storage ([4]; 40° C./75% RH, listed as amorphous Aticaprant): Form II
